# Measurements reported in ChEMBL document CHEMBL5584362, “Sucurchalasins A and B, Sulfur-Containing Heterodimers of a Cytochalasan and a Macrolide from the Endophytic Fungus Aspergillus spelaeus GDGJ-286” (J Nat Prod, 2024).
# The source made the active and inactive calls. The rule behind the calls is not given here.
# Columns and labels:
# Salmonella typhi [1] = test: Antibacterial activity against Salmonella typhi measured after 20 to 45 mins by broth microdilution method; assay type: functional, Salmonella enterica subsp. enterica serovar Typhi; conditions: Salmonella enterica; time 20-45 min
# Staphylococcus aureus [2] = test: Antibacterial activity against Staphylococcus aureus measured after 20 to 45 mins by broth microdilution method; assay type: functional; conditions: time 20-45 min
# HeLa = test: Cytotoxicity against human HeLa cells by MTT assay; assay type: functional, cell-based
# Bacillus subtilis = test: Antibacterial activity against Bacillus subtilis measured after 20 to 45 mins by broth microdilution method; assay type: functional; conditions: time 20-45 min
# Enterococcus faecalis = test: Antibacterial activity against Enterococcus faecalis measured after 20 to 45 mins by broth microdilution method; assay type: functional; conditions: time 20-45 min
# A2780 [3] = test: Cytotoxicity against human A2780 cells by MTT assay; assay type: functional, cell-based
# HepG2 = test: Cytotoxicity against human HepG2 cells by MTT assay; assay type: functional, cell-based
# Vibrio parahaemolyticus [4] = test: Antibacterial activity against Vibrio parahaemolyticus measured after 20 to 45 mins by broth microdilution method; assay type: functional; conditions: time 20-45 min
# SK-OV-3 = test: Cytotoxicity against human SK-OV-3 cells by MTT assay; assay type: functional, cell-based
# Shigella dysenteriae [5] = test: Antibacterial activity against Shigella dysenteriae measured after 20 to 45 mins by broth microdilution method; assay type: functional; conditions: time 20-45 min
# Escherichia coli [6] = test: Antibacterial activity against Escherichia coli measured after 20 to 45 mins by broth microdilution method; assay type: functional; conditions: time 20-45 min
# A2780 [7] = test: Induction of apoptosis in human A2780 cells assessed as increase in late apoptotic cells measured after 48 hrs by Annexin V-FITC/PI staining based FACS analysis; assay type: functional, cell-based; conditions: dose 1-9 µM
# A2780 [8] = test: Induction of apoptosis in human A2780 cells assessed as late apoptotic cells at 9 uM measured after 48 hrs by Annexin V-FITC/PI staining based FACS analysis (reference value: 2.32 to 2.4%); assay type: functional
# A2780 [9] = test: Induction of apoptosis in human A2780 cells assessed as increase in early apoptotic cells measured after 48 hrs by Annexin V-FITC/PI staining based FACS analysis; assay type: functional, cell-based; conditions: dose 1-9 µM
# A2780 [10] = test: Induction of apoptosis in human A2780 cells assessed as chromatin fragmentation at 1 to 9 uM measured after 48 hrs by Hoechst 33258 staining based assay; assay type: functional, cell-based; conditions: dose 1-9 µM
# A2780 [11] = test: Induction of apoptosis in human A2780 cells assessed as necrotic cells at 1 uM measured after 48 hrs by Annexin V-FITC/PI staining based FACS analysis (reference value: 1.34 to 3.3%); assay type: functional
# A2780 [12] = test: Induction of apoptosis in human A2780 cells assessed as viable cells at 3 uM measured after 48 hrs by Annexin V-FITC/PI staining based FACS analysis (reference value: 92.6 to 92.8%); assay type: functional; conditions: read-out: Activity
# A2780 [13] = test: Induction of apoptosis in human A2780 cells assessed as early apoptotic cells at 1 uM measured after 48 hrs by Annexin V-FITC/PI staining based FACS analysis (reference value: 1.68 to 1.9%); assay type: functional
# A2780 [14] = test: Induction of apoptosis in human A2780 cells assessed as late apoptotic cells at 1 uM measured after 48 hrs by Annexin V-FITC/PI staining based FACS analysis (reference value: 2.32 to 2.4%); assay type: functional
# A2780 [15] = test: Induction of apoptosis in human A2780 cells assessed as early apoptotic cells at 3 uM measured after 48 hrs by Annexin V-FITC/PI staining based FACS analysis (reference value: 1.68 to 1.9%); assay type: functional
# A2780 [16] = test: Induction of apoptosis in human A2780 cells assessed as late apoptotic cells at 3 uM measured after 48 hrs by Annexin V-FITC/PI staining based FACS analysis (reference value: 2.32 to 2.4%); assay type: functional
# Escherichia coli [17] = test: Antibacterial activity against Escherichia coli at 25 ug/ml measured after 20 to 45 mins by broth microdilution method; assay type: functional, organism-based; conditions: dose 25.0 µg/ml, time 20-45 min
# Vibrio parahaemolyticus [18] = test: Antibacterial activity against Vibrio parahaemolyticus at 25 ug/ml measured after 20 to 45 mins by broth microdilution method; assay type: functional, organism-based; conditions: dose 25.0 µg/ml, time 20-45 min
# A2780 [19] = test: Induction of apoptosis in human A2780 cells assessed as chromatin condensation at 1 to 9 uM measured after 48 hrs by Hoechst 33258 staining based assay; assay type: functional, cell-based; conditions: dose 1-9 µM
# A2780 [20] = test: Induction of apoptosis in human A2780 cells assessed as necrotic cells at 3 uM measured after 48 hrs by Annexin V-FITC/PI staining based FACS analysis (reference value: 1.34 to 3.3%); assay type: functional
# Salmonella typhi [21] = test: Antibacterial activity against Salmonella typhi at 25 ug/ml measured after 20 to 45 mins by broth microdilution method; assay type: functional, organism-based; conditions: Salmonella enterica subsp. enterica serovar Typhi; dose 25.0 µg/ml, time 20-45 min
# A2780 [22] = test: Induction of apoptosis in human A2780 cells assessed as necrotic cells at 9 uM measured after 48 hrs by Annexin V-FITC/PI staining based FACS analysis (reference value: 1.34 to 3.3%); assay type: functional
# A2780 [23] = test: Induction of apoptosis in human A2780 cells assessed as viable cells at 9 uM measured after 48 hrs by Annexin V-FITC/PI staining based FACS analysis (reference value: 92.6 to 92.8%); assay type: functional; conditions: read-out: Activity
# Staphylococcus aureus [24] = test: Antibacterial activity against Staphylococcus aureus at 25 ug/ml measured after 20 to 45 mins by broth microdilution method; assay type: functional, organism-based; conditions: dose 25.0 µg/ml, time 20-45 min
# A2780 [25] = test: Induction of apoptosis in human A2780 cells assessed as viable cells at 1 uM measured after 48 hrs by Annexin V-FITC/PI staining based FACS analysis (reference value: 92.6 to 92.8%); assay type: functional; conditions: read-out: Activity
# A2780 [26] = test: Induction of apoptosis in human A2780 cells assessed as early apoptotic cells at 9 uM measured after 48 hrs by Annexin V-FITC/PI staining based FACS analysis (reference value: 1.68 to 1.9%); assay type: functional
# Shigella dysenteriae [27] = test: Antibacterial activity against Shigella dysenteriae at 25 ug/ml measured after 20 to 45 mins by broth microdilution method; assay type: functional, organism-based; conditions: dose 25.0 µg/ml, time 20-45 min
Compound,MIC (Salmonella typhi [1]),MIC (Staphylococcus aureus [2]),IC50 (HeLa),MIC (Bacillus subtilis),MIC (Enterococcus faecalis),IC50 (A2780 [3]),IC50 (HepG2),MIC (Vibrio parahaemolyticus [4]),IC50 (SK-OV-3),MIC (Shigella dysenteriae [5]),MIC (Escherichia coli [6]),Activity (Salmonella typhi [21]),Activity (Staphylococcus aureus [24]),also measured
CO[C@H]1CCC[C@H](C)OC(=O)Cc2cc(O)cc(O)c2C(=O)C1 [11ALPHA-METHOXYCURVULARIN],> 25 mg/L,> 25 mg/L,> 20 µM,> 25 mg/L,> 25 mg/L,> 20 µM,> 20 µM,> 25 mg/L,> 20 µM,> 25 mg/L,> 25 mg/L,–,–,–
CC1=C[C@@H]2/C=C(\C)CC[C@@H](O)[C@@H](O)[C@H](O)CC(=O)[C@]23C(=O)N[C@@H](CC(C)C)[C@@H]3[C@@H]1C,> 25 mg/L,> 25 mg/L,> 20 µM,> 25 mg/L,> 25 mg/L,> 20 µM,> 20 µM,> 25 mg/L,> 20 µM,> 25 mg/L,> 25 mg/L,–,–,–
CC1=C[C@@H]2/C=C(\C)CC[C@@H](O)C(=O)C[C@@H](S[C@H]3CCC[C@H](C)OC(=O)Cc4cc(O)cc(O)c4C(=O)C3)C(=O)[C@]23C(=O)N[C@@H](CC(C)C)[C@@H]3[C@@H]1C,–,–,23 µM,6.3 mg/L,3.1 mg/L,8.3 µM,11 µM,–,20 µM,13 mg/L,–,inactive,inactive,Activity (A2780 [7]): Dose-Dependent Effect; Activity (A2780 [8]): 19.1%; Activity (A2780 [9]): Dose-Dependent Effect; Activity (A2780 [10]): Active; Activity (A2780 [11]): 4.07%; viability at 3 µM (A2780 [12]): 87%; Activity (A2780 [13]): 1.4%; Activity (A2780 [14]): 3.56%; Activity (A2780 [15]): 5.4%; Activity (A2780 [16]): 5.46%; Activity (Escherichia coli [17]): inactive; Activity (Vibrio parahaemolyticus [18]): inactive; Activity (A2780 [19]): Active; Activity (A2780 [20]): 2.16%; Activity (A2780 [22]): 1.87%; viability at 9 µM (A2780 [23]): 26%; viability at 1 µM (A2780 [25]): 91%; Activity (A2780 [26]): 53.2%
O=C(O)c1cn(C2CC2)c2cc(N3CCNCC3)c(F)cc2c1=O [CIPROFLOXACIN],1.6 mg/L,1.6 mg/L,–,1.6 mg/L,1.6 mg/L,–,–,3.1 mg/L,–,1.6 mg/L,1.6 mg/L,–,–,–
C[C@H]1CCC/C=C/C(=O)c2c(O)cc(O)cc2CC(=O)O1 [DEHYDROCURVULARIN],–,–,7.9 µM,3.1 mg/L,13 mg/L,4.3 µM,12 µM,25 mg/L,20 µM,6.3 mg/L,25 mg/L,inactive,inactive,Activity (A2780 [7]): Dose-Dependent Effect; Activity (A2780 [8]): 12.2%; Activity (A2780 [9]): Dose-Dependent Effect; Activity (A2780 [10]): Active; Activity (A2780 [11]): 1.68%; viability at 3 µM (A2780 [12]): 80.8%; Activity (A2780 [13]): 2.2%; Activity (A2780 [14]): 1.87%; Activity (A2780 [15]): 11.1%; Activity (A2780 [16]): 5.07%; Activity (A2780 [19]): Active; Activity (A2780 [20]): 2.09%; Activity (A2780 [22]): 2.11%; viability at 9 µM (A2780 [23]): 34.1%; viability at 1 µM (A2780 [25]): 94.2%; Activity (A2780 [26]): 51.6%
CC1=C[C@@H]2/C=C(\C)CC[C@H](O)[C@H](O)/C=C/C(=O)O[C@]23C(=O)N[C@@H](CC(C)C)[C@@H]3[C@@H]1C [ASPOCHALASIN I],> 25 mg/L,> 25 mg/L,> 20 µM,> 25 mg/L,> 25 mg/L,> 20 µM,> 20 µM,> 25 mg/L,> 20 µM,> 25 mg/L,> 25 mg/L,–,–,–
C[C@H]1CCC(=O)CCC(=O)c2c(O)cc(O)cc2CC(=O)O1,> 25 mg/L,> 25 mg/L,> 20 µM,> 25 mg/L,> 25 mg/L,> 20 µM,> 20 µM,> 25 mg/L,> 20 µM,> 25 mg/L,> 25 mg/L,–,–,–
CC1=C[C@@H]2/C=C(\C)CC[C@@H](O)[C@@H](O)/C=C/C(=O)[C@]23C(=O)N[C@@H](CC(C)C)[C@@H]3[C@@H]1C,–,–,> 20 µM,6.3 mg/L,6.3 mg/L,> 20 µM,> 20 µM,–,> 20 µM,–,–,inactive,inactive,Activity (Escherichia coli [17]): inactive; Activity (Vibrio parahaemolyticus [18]): inactive; Activity (Shigella dysenteriae [27]): inactive
CC1=C[C@@H]2/C=C(\C)CCC(=O)[C@@H](O)/C=C/C(=O)[C@]23C(=O)N[C@@H](CC(C)C)[C@@H]3[C@@H]1C,> 25 mg/L,> 25 mg/L,> 20 µM,> 25 mg/L,> 25 mg/L,> 20 µM,> 20 µM,> 25 mg/L,> 20 µM,> 25 mg/L,> 25 mg/L,–,–,–
C[C@H]1CC/C=C\CC(=O)c2c(O)cc(O)cc2CC(=O)O1,> 25 mg/L,> 25 mg/L,> 20 µM,> 25 mg/L,> 25 mg/L,> 20 µM,> 20 µM,> 25 mg/L,> 20 µM,> 25 mg/L,> 25 mg/L,–,–,–
CC1=C[C@@H]2/C=C(\C)CC[C@@H](O)C(=O)C[C@@H](S[C@@H]3CCC[C@H](C)OC(=O)Cc4cc(O)cc(O)c4C(=O)C3)C(=O)[C@]23C(=O)N[C@@H](CC(C)C)[C@@H]3[C@@H]1C,–,–,10 µM,6.3 mg/L,3.1 mg/L,3.9 µM,15 µM,–,13 µM,13 mg/L,–,inactive,inactive,Activity (A2780 [7]): Dose-Dependent Effect; Activity (A2780 [8]): 14.9%; Activity (A2780 [9]): Dose-Dependent Effect; Activity (A2780 [10]): Active; Activity (A2780 [11]): 2.91%; viability at 3 µM (A2780 [12]): 90.9%; Activity (A2780 [13]): 1.35%; Activity (A2780 [14]): 1.71%; Activity (A2780 [15]): 4.85%; Activity (A2780 [16]): 2.87%; Activity (Escherichia coli [17]): inactive; Activity (Vibrio parahaemolyticus [18]): inactive; Activity (A2780 [19]): Active; Activity (A2780 [20]): 1.38%; Activity (A2780 [22]): 1.19%; viability at 9 µM (A2780 [23]): 27.1%; viability at 1 µM (A2780 [25]): 94%; Activity (A2780 [26]): 56.8%
